Reference: patent US10676476B2, “Small-molecule HSP90 inhibitors” (Sloan-Kettering Institute for Cancer Research, priority 2005, dated 2020)

Columns and labels:
[1] = system: SKBr3 breast cancer cells; experiment: Growth inhibition, sulforhodamine B assay; assay type: cell-based, human; details: result in words
Method: (§1) Cell Culture. The human breast cancer cell lines SKBr3 and MDA-MB-468 were a gift from Dr. Neal Rosen (MSKCC). Cells were maintained in 1:1 mixture of DME:F12 supplemented with 2 mM glutamine, 50 units/mL penicillin, 50 […] and 10% heat inactivated fetal bovine serum (Gemini Bioproducts#100-10b) and incubated at 37° C., 5% CO2. Growth assays. Growth inhibition studies were performed using the sulforhodamine B assay as previously described.^29 In summary, experimental cultures were plated in microtiter plates (Nunc#167008). One column of wells was left without cells to serve as the blank control. Cells were allowed to attach overnight. The following day, growth medium having either drug or DMSO at twice the desired initial concentration was added to the plate in triplicate and was serially diluted at a 1:1 ratio in the microtiter plate. After 72 h of growth, the cell number in treated versus control wells was estimated after treatment with 50% trichloroacetic acid and staining with 0.4% sulforhodamine B in 1% acetic acid. […] Normal human renal proximal tubular epithelial (RPTEC) cells were purchased pre-seeded in 96-well plates (Clonetics, CC-3190). Upon receipt, cells were placed in a humidified incubator at 37° C., 5% CO2 and allowed to equilibrate for 3 h. Media was removed by suction and replaced with fresh media provided by the manufacturer. Cells were then treated with either drugs or DMSO for 72 h and the IC50 values were determined as described above.

[2] = system: small cell lung cancer cell lines; experiment: Apoptosis and cell death in SCLC cell lines; assay type: cell-based; details: each of the SCLC cell lines
Hsp90 from SKBr3 cells = experiment: Hsp90 competition assay, SKBr3 cell lysate; assay type: binding, human
Method: (§2) When using cell lysates instead of recombinant protein, the assay measures binding to average. Hsp90 population found in cell specific complexes.
(§3) Hsp90 Competition Assay.Fluorescence polarization measurements were performed on an ANALYST® AD instrument (Molecular Devices, Sunnyvale, Calif.). […] The assay buffer (HFB) contained 20 mM HEPES (K) pH 7.3, 50 mM KCl, 5 mM MgCl2, 20 mM Na2MoO4, 0.01% NP40. Before each use, 0.1 mg/mL bovine gamma globulin (BGG) (Panvera Corporation, Madison, Wis.) and 2 mM DTT (Fisher Biotech, Fair Lawn, N.J.) were freshly added. […] Cell lysates were prepared rupturing cellular membranes by freezing at −70° C. and dissolving the cellular extract in HFB with added protease and phosphotase inhibitors. Organs were harvested from a healthy mouse and homogenized in HFB. Saturation curves were recorded in which GM-BODIPY (5 nM) was treated with increasing amounts of cellular lysates.

MDA-MB-468 cells = experiment: Anti-mitotic assay (Tg-3 microtiter immunoassay); assay type: cell-based, human; details: MDA-MB-468 (Rb-defective) cells, 24 h
Method: Anti-Mitotic Assay. Black, clear-bottom microtiter 96-well plates (Corning Costar#3603) were used to accommodate experimental cultures. MDA-MB-468 cells were seeded in each well at 8,000 cells per well in growth medium (100 μL), and allowed to attach overnight at 37° C. and 5% CO2. Growth medium (100 μL) with drug or vehicle (DMSO) was gently added to the wells, and the plates were incubated at 37° C. and 5% CO2 for 24 h. Wells were washed with ice-cold TBST (2×200 μL). A house vacuum source attached to an eight-channel aspirator was used to remove the liquid from the 96-well plates. Ice-cold methanol (100 μL) was added to each well, and the plate was placed at 4° C. for 5 min. Methanol was removed by suction and plates were washed with ice-cold TBST (2×200 μL). Plates were further incubated with SuperBlock® blocking buffer (Pierce #37535) (200 μL) for 2 h at RT. The Tg-3 antibody (gift of Dr. Davies, Albert Einstein College of Medicine) diluted 1:200 in SuperBlock® was placed in each well (100 μL) except the control column that was treated with control antibody (Mouse IgM, NeoMarkers, NC-1030-P). After 72 h, wells were washed with ice-cold TBST (2×200 μL). […] Un-reacted antibody was removed by washing the plates with ice-cold TBST (3×200 μL) for 5 min on a shaker. The ECL™ Western Blotting Detection Reagents 1 and 2 in 1:1 mix (100 μL) was placed in each well and the plates were read immediately in an Analyst AD plate reader (Molecular Devices). Luminescence readings were imported into SOFTmax PROR 4.3.1. Anti-mitotic activity was defined as a concentration dependent increase in luminescence readings in compound-treated wells as compared to DMSO only treated wells.

[3] = system: Hsp90 complexes found in normal brain tissue; experiment: Hsp90 competition assay, brain homogenate; assay type: binding, mouse; details: ratio of EC50 values
Method: as §2, §3

Her2 in SKBr3 cells = experiment: Her2 assay (microtiter immunoassay of Her2 degradation); assay type: cell-based, human; details: result in words
Method: Her2 Assay. SKBr3 cells were plated in black, clear-bottom microtiter plates (Corning#3603) at 3,000 cells/well in growth medium (100 μl) and allowed to attach for 24 h at 37° C. and 5% CO2. Growth medium (100 μl) with drug or vehicle (DMSO) was carefully added to the wells, and the plates were placed at 37° C. and 5% CO2. Following 24 h incubation with drugs, wells were washed with ice-cold Tris buffer saline (TBS) containing 0.1% Tween 20 (TBST) (200 μl). A house vacuum source attached to an eight-channel aspirator was used to remove the liquid from the plates. Further, methanol (100 μl at −20° C.) was added to each well, and the plate was placed at 4° C. for 10 min. Methanol was removed by washing with TBST (2×200 μl). After further incubation at RT for 2 h with SUPERBLOCK® R (Pierce 37535) (200 μl), anti-Her-2 (c-erbB-2) antibody (Zymed Laboratories#28-004) (100 μl, 1:200 in SUPERBLOCK® R) was placed in each well. The plate was incubated overnight at 4° C. For control wells, 1:200 dilution of a normal rabbit IgG (Santa Cruz#SC-2027) in SUPERBLOCK® R was used. Each well was washed with TBST (2×200 μl) and incubated at RT for 2 h with an anti-rabbit HRP-linked antibody (Sigma, A-0545) (100 μl, 1:2000 in SuperBlockR). Unreacted antibody was removed by washing with TBST (3×200 μl), and the ECL™ Western blotting reagent (Amersham #RPN2106) (100 μL) was added. The plate was immediately read in an Analyst AD plate reader (Molecular Devices). Each well was scanned for 0.1 s. Readings from wells containing only control IgG and the corresponding HRP-linked secondary antibody were set as background and deducted from all measured values.

[4] = system: renal proximal tubular epithelial cells (RPTEC); experiment: Cytotoxicity against normal RPTEC cells; assay type: cell-based, human; details: ratio of growth IC50 values
Method: as §1, with “Cells were then treated with either drugs or DMSO for 72 h and the IC50 values were determined as described above.” left out

Q: For C#CCCCn1c(Sc2cc3c(cc2Br)OCO3)nc2c(N)ncnc21 [Example 1, 9-(Pent-4-ynyl)-8-(6-bromo-benzo[1,3]dioxol-5-ylsulfanyl)adenine], which “Inhibition of growth in SKBr3 cells” value [1] is on record?
A: The value was “inhibition of growth”.

Q: And the “Induction of apoptosis in SCLC cell lines” value [2]?
A: Its value is “induced apoptosis”.

Q: What about the “Selectivity for tumor cells as opposed to normal heart, brain or lung tissue” value (Hsp90 from SKBr3 cells) of the same molecule?
A: Its value is “very high selectivity”.

Q: And the Anti-mitotic (MDA-MB-468 cells)?
A: Its Anti-mitotic is “exhibited anti-mitotic activity and Yes”.

Q: What about the Brain/SKBr3 [3] of the same molecule?
A: The Brain/SKBr3 was 2000.

Q: What about the “Her2 degradation in SKBr3 cells” value (Her2 in SKBr3 cells) of the same molecule?
A: The value was “induced Her2 degradation”.

Q: What about the RPTEC/SKBr3 [4] of the same molecule?
A: The RPTEC/SKBr3 was 20.5.
